Data on one molecule can be found in patent US20250361486A1, “METHOD FOR CULTURING CELLS REQUIRING A SUPPLY OF IRON” (SAFI BIOTHERAPEUTICS INC., priority 2022, published 2025).

Test [1] deals with cultured red blood cells. Kind of test: Cell losses at end of red blood cell perfusion culture. The class given is cell-based. As to conditions: Trolox approximately 100 μM in culture medium, perfusion bioreactor step D7 to D22; average of 6 cultures; 13% loss without Trolox. Here is the method: (§1) Cultured red blood cell production was performed with and without the addition of Trolox during the perfusion bioreactor culture step of the process described below.
(§2) Briefly, the cells cultured according to the invention are total nucleated cells collected by cytapheresis from volunteer donors previously mobilised with G-CSF.
(§3) A first step of the process according to the invention is carried out over 7 days (from D1 to D7) in fed-batch at a temperature of 37° C., under an atmosphere of 5% CO2 and in a culture medium adapted from that described by Giarratana et al. (2011) “Proof of principle for transfusion of in vitro-generated red blood cells”, Blood 118:5071-5079 for the first step of the expansion procedure described in the article (page 5072). Halfway through this step, fresh culture medium is added to the culture so as to dilute the culture by half (the same volume of culture medium is added as the volume initially present). […]
Fifteen cultures were performed (9 without Trolox and 6 with Trolox) and cell losses were measured at the end of the culture, defined as the % decrease in cell concentration between the peak cell concentration and the day the culture was stopped (2 to 3 days later).

The test system of test [2] is cultured red blood cells. Kind of test: Preservation yield of cultured red blood cells after 28 days in a preservation solution. Particulars: culture conducted with Trolox approximately 100 μM; red blood cells stored for 28 days in a preservation solution; 63% without Trolox. The class given is cell-based. Here is the method: as §1, §2, §3
Furthermore, the red blood cells from the above cultures were stored for 28 days in a preservation solution and the preservation efficiency at the end of the preservation period was determined [100×(final red blood cell count/mL)/(initial red blood cell count/mL].

As to `Cc1c(C)c2c(c(C)c1O)CCC(C)(C(=O)O)O2` (centres unmarked) [Trolox, 3,4-dihydro-6-hydroxy-2,5,7,8-tetramethyl-2H-I-benzopyran-2-carboxylic acid], the “cell losses at the end of culture (% decrease in cell concentration between peak cell concentration and day culture was stopped)” value in the test on cultured red blood cells [1] came to 6%. Also, the “average conservation yield [100×(final red blood cell count/mL)/(initial red blood cell count/mL)]” value in the test with cultured red blood cells [2] is recorded as 77%.
